Key:
[1] = system: LC3-II; assay: autophagic marker LC3-II in U87MG cells; type: cell-based, human
Description: Changes in cell metabolism have emerged in recent years as an important component of PI3K/PIP3/Akt signaling, contributing to the regulation of cell viability and transformation by the PI3K/Akt pathway. Datta S R et al. (1999) Genes Dev 13:2905-27; Elstrom R L et al. (2004) Cancer Res 64:3892-9. Therefore, the possibility that PIT-1 may cause dysregulation of energy homeostasis and induction of the metabolic stress in cancer cells, which may contribute to the PIT-induced cell death, was investigated. […] Hardie D G (2007) Nat Rev Mol Cell Biol 8:774-85. […] Mathew R et al. (2007) Nat Rev Cancer 7:961-7. […] Takeuchi H et al. (2005) Cancer Res 65:3336-46.

[2] = target: T1, PLC-δ PH domain (Homo sapiens, UniProt P51178); assay: PH domain translocation assay, GFP-fused PLC-δ PH domain; type: cell-based
T1 construct: 100 nM PLC-δ PH domain
T1 sequence (P51178 21-130 limits assumed): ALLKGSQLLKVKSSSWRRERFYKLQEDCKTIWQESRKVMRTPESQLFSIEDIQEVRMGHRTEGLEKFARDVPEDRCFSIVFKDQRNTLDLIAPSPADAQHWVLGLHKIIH
Method: Cells were transfected with the corresponding GFP-fusion vectors, serum starved overnight, and incubated with 100 μM PITs or PIT-1is for 2 hr, followed by stimulation with 100 ng/ml PDGF or 250 ng/ml PMA for 5 min. The translocation was analyzed using fluorescent microscope and was quantitated by counting the number of cells with translocated PH domains in five random fields.
In contrast, no inhibitory effect was observed on the cellular localization of PLC-δ PH domain, which is specific for PIP2.

[3] = target: T2, PH domain of Akt (His6-Akt123) (Homo sapiens, UniProt P31749); assay: NMR 2D HSQC 1H-15N binding analysis, His6-Akt123
T2 construct: Human Akt PH domain a.a; 1-123; made in house; host or cells: E. coli BL21(DE3)
Method: Human Akt PH domain a.a. 1-123 and human PDK1 PH domain a.a. 411-557 were cloned by PCR amplification into Bam HI/Eco RI sites of pGEX-6P-1 vector (GE Healthcare). For NMR experiments, His6-Akt PH123 was prepared by cloning corresponding PCR fragment between Nde I and Eco RI sites of pET-28 vector (Novagen). Recombinant proteins were expressed in BL21(DE3) E. coli. Expression was induced by addition of 100 μM IPTG for 16 hr at 25° C. Proteins were purified using glutathione-sepharose (GE Healthcare) or Ni-NTA beads (Qiagen) according to manufacturer's recommendations and dialyzed overnight against 50 mM Tris-HCl (pH 7.5), 150 mM NaCl, and 5 mM β-mercaptoethanol (b-ME) buffer.
To further characterize the mode of action of PIT-1, NMR-based analyses of PIT-1 binding to the PH domain of Akt were performed. […] PIT-1 was further titrated to identify residues primarily affected by the small molecule binding.

[4] = system: PI3K/PDK1/Akt signaling pathway; assay: PI3K/PDK1/Akt signaling in HUVEC, Western blotting; type: cell-based, human; settings: 50, 100, 200 μM, 2 hr, bFGF
Method: Endothelial cell migration plays a central role in tumor angiogenesis. Avraamides C J et al. (2008) Nat Rev Cancer 8:604-17. […] First, human umbilical vein endothelial cells (HUVEC) cells were serum starved overnight, and treated with different concentrations of PIT-1 (50, 100 and 200 μM) for 2 hr, followed by stimulation with 10 ng/ml bFGF for 15 min, and the PIP3-dependent phosphorylation events were evaluated by Western blotting.

[5] = system: U87MG cells (R130M PTEN vs wt PTEN); assay: Sytox cell death assay, U87MG expressing wild-type or R130M inactive PTEN; type: cell-based, human; settings: 25, 50, 100 μM, 48 hr
Method: After treatment with 25, 50, or 100 μM PIT-1 for 48 hr, cell death was analyzed using Sytox cell death assay.
Based on the critical role of PIP3-dependent Akt signaling in the regulation of cell survival, the effect of PIT-1 on the cancer cell viability was tested. Cancer cells were seeded into 96-well plates (white plates for ATP assay; black plates for fluorescent assay; clear plates for MTS assay) at the density of 5-10×10^3 cells per well in 100 μl of the appropriate media. Compounds were added at a series of concentrations and incubated for different times. For the ATP assay, a luminescence-based commercial kit (CellTiter-Glo, Promega, Madison, Wis.) was used. Thirty microliters of cell lysis/ATP detection reagent was added to each well, mixed for 10 min at room temperature, and the luminescence was measured using a Wallac Victor 3 plate reader (Perkin-Elmer, Wellesley, Mass.). […] Twenty microliters of the combined MTS/PMS solution was added into each well, incubated for 4 hr at 37° C., and the absorbance at 490 nm was measured using a Wallac Victor 3 plate reader. For the Sytox cell death assay, measuring loss of plasma membrane integrity, cells were incubated with 1 μM Sytox Green reagent (Molecular Probes, Eugene, Oreg.) for 30 min at 37° C. and the fluorescence intensity was measured using Wallac Victor 3 plate reader with excitation at 485 nm and emission at 545 nm. […]

T2 sequence (P31749 1-123): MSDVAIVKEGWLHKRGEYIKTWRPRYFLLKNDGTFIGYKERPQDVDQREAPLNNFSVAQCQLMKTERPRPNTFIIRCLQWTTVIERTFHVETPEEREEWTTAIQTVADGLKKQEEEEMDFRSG

## O=C(NC(=S)Nc1cc([N+](=O)[O-])cc(Cl)c1O)c1ccccc1 [PIT-1]
[1]
  expression of autophagic marker LC3-II: prominently increased
[2]
  effect on PLC-δ PH domain localization / PIP2/PH domain binding in cells: does not disrupt
[3]
  changes in 2D HSQC spectrum of His6-Akt123: induces significant changes
[4]
  PI3K/PDK1/Akt signaling pathway in HUVEC: capable of blocking
[5]
  toxicity in U87MG cells lacking PTEN activity compared to wt PTEN-expressing cells: more pronounced
